According to patent publication US7855232B2, “Organoselenium compound for cancer chemoprevention” (LKT Laboratories, Inc., priority 2001, dated 2010):
Marks after values point to notes of the source that are not given here.

Columns and labels:
Type in all cases: in vivo, Female A/J mice
[1] = test system: GSH; assay: Glutathione (GSH) concentration in tissues of treated mice, HPLC; details: for Ratio Test/con (GSH): gavage; for GSH conc.: gavage in corn oil
Protocol: GSH was quantitated by modification of the procedure Siller-Cepeda et al. Plant Cell Physiol. 32:1179-1185 (1991). Aliquots of tissue homogenates were mixed with equal volumes of 20% PCA containing 2 mM BPDS. Vortex, centrifuge at 7800×g for 15 minutes at 4° C. and 250 μl supernatant transferred into a microfuge tube containing 25 μl of γ-glu-glu as internal standard. The samples were carboxymethylated with 25 μl of 100 mM iodoacetic acid dissolved in 0.2 mM m-cresol purple sodium salt solution. The pH of the solution was adjusted to 9-10 by adding 350 μl of KOH (2M)-KHCO3 (2.4 M) mixture and incubated in the dark for 15 minutes. After carboxymethylation, the samples were derivatized with 500 μl of 1% dinitrofluorobenzene (DNFB) and kept in the dark at 4° C. overnight. The samples were centrifuged at 13,000×g for 15 minutes, filtered through 0.2 μm filter, and were analyzed with a SHIMADZU two-pump gradient HPLC system. Samples were injected by a SHIMADZU SIL-10AV Autoinjector onto a Varian 3-aminopropyl MICROSORB-MV column (4.6×250 mm) operated at ambient temperature with a flow rate of 1 ml/min. Absorbance of the dinitrophenyl derivatives was monitored at 365 nm. The amount of GSH was calculated from a standard curve using γ-glu-glu as internal standard.

[2] = test system: Glutathione S-Transferase; assay: Glutathione S-transferase (GST) activity in tissue cytosol of treated mice, CDNB substrate; details: for Ratio Test/con (GST): gavage; for GST act.: gavage in corn oil
Protocol: The activity of cytosolic was assayed according to the method of Habig et al. using 1-chloro-2,4-dinitrobenzene (CDNB) as the substrate. Habig et al, J. Biol. Chem. 249:7130-7139 (1974). The complete solution contains, in a total volume of 2.0 mL, 0.1 M phosphate buffer, pH 6.5, 5 mM glutathione, 1 mM CDNB, and 20 μL of the cytosol. The reaction was monitored at 340 nm in a Beckman Model DU65 UV-VIS spectrophotometer. Assays were performed at 30° C. Complete assay mixture without the cytosolic enzyme was used as the reference blank. Data as analyzed by the Student's “t” test and P values were obtained in comparison to the control.

[3] = test system: UDP-Glucuronosyltransferase (UDP-GT); assay: UDP-glucuronosyltransferase (UDP-GT) activity in liver microsomes of treated mice, o-aminophenol substrate; details: for Ratio Test/con (UDP-GT): gavage; for UDP-GT activity (column head prints GSH conc.): gavage in corn oil
Protocol: Microsomal samples were assayed for enzymatic conjugation by modifying the procedure of Zakim et al., Methods of Biochemical Analysis, ed. David Glick, 21:1-37, (1973). using o-aminophenol as the substrate. The complete assay solution contains, in a total volume of 500 μl, 0.25 M phosphate buffer (pH 7.6), 0.002 M o-aminophenol, 0.05 M UDPGA, 0.125 M magnesium chloride and 100 μl microsomes. The mixture was incubated for 30 minutes. Reactions were stopped by the addition of 500 μl of TCA-sodium phosphate reagent. The precipitated protein was removed, 100 μl of 0.05% sodium nitrite was added to 950 μl of the supernatent solution and allowed to stand for 5 minutes. 100 μl of 0.5% ammonium sulfamate was added, after 5 minutes. 100 μl of 0.12% N-(-1-naphthyl)ethylenediamine dihydrochloride was added and incubated for 2 hours in the dark; and the difference in the optical density between the blanks and the samples were recorded at 555 nm in a Beckman model DU65 UV-VIS spectrophotometer. The UDP-GT activity was calculated using the extinction coefficient 29 mM-1 cm-1 for the coupled product.

[4] = liver, dose 0.02 mmol/Kg body weight
[5] = liver, dose 0.04 mmol/Kg body weight
[6] = small intestinal mucosa, dose 0.02 mmol/Kg body weight
[7] = small intestinal mucosa, dose 0.04 mmol/Kg body weight
[8] = colon, dose 0.02 mmol/Kg body weight
[9] = colon, dose 0.04 mmol/Kg body weight
[10] = forestomach, dose 0.02 mmol/Kg body weight
[11] = forestomach, dose 0.04 mmol/Kg body weight
[12] = lung, dose 0.02 mmol/Kg body weight
[13] = lung, dose 0.04 mmol/Kg body weight

In the case of `N#C[Se]Cc1ccc[se]1` [(3) SMSC, 2-selenophenyl methylene selenocynate], the “Ratio Test/con (GSH)” value [1, 4] is reported as 0.98, the GSH conc. [1, 4] is reported as 3.49 ± 0.90 μmol/gm tissue weight and the “Ratio Test/con (GSH)” value [1, 5] is reported as 1.38. For the same compound, the GSH conc. [1, 5] was 4.89 ± 0.57^c μmol/gm tissue weight, the “Ratio Test/con (GSH)” value [1, 6] was 0.89 and the GSH conc. [1, 6] was 1.88 ± 0.4 μmol/gm tissue weight. The “Ratio Test/con (GSH)” value [1, 7] was 1.00, the “Ratio Test/con (GST)” value [2, 8] was 1.08 and the GST act. [2, 8] was 0.70 ± 0.05 μmol/min mg protein. For the same compound, the “Ratio Test/con (GST)” value [2, 9] was 1.06, the GST act. [2, 9] was 0.69 ± 0.09 μmol/min mg protein and the “Ratio Test/con (GST)” value [2, 10] was 0.8. For the same compound, the GST act. [2, 10] was 0.89 ± 0.22 μmol/min mg protein, the “Ratio Test/con (GST)” value [2, 11] was 1.01 and the GST act. [2, 11] was 1.12 ± 0.19 μmol/min mg protein. For the same compound, the “Ratio Test/con (GST)” value [2, 4] was 0.81, the GST act. [2, 4] was 1.04 ± 0.18 ^g μmol/min mg protein and the “Ratio Test/con (GST)” value [2, 5] was 1.58. The GST act. [2, 5] was 2.02 ± 0.33 ^e μmol/min mg protein, the “Ratio Test/con (GST)” value [2, 12] was 1.18 and the GST act. [2, 12] was 0.40 ± 0.03 ^f μmol/min mg protein. The “Ratio Test/con (GST)” value [2, 13] was 1.00, the GST act. [2, 13] was 0.34 ± 0.06 μmol/min mg protein and the “Ratio Test/con (GST)” value [2, 6] was 0.86. The GST act. [2, 6] was 0.19 ± 0.5 μmol/min mg protein, the “Ratio Test/con (GST)” value [2, 7] was 0.91 and the GST act. [2, 7] was 0.20 ± 0.02 μmol/min mg protein. For the same compound, the “Ratio Test/con (UDP-GT)” value ([3]; dose 0.02 mmol/Kg body weight) was 1.52, the “UDP-GT activity (column head prints GSH conc.)” value (from here on “UDP-GT activity”) ([3]; dose 0.02 mmol/Kg body weight) was 6.15 ± 1.20 ^d nmol/min/mg protein and the “Ratio Test/con (UDP-GT)” value ([3]; dose 0.04 mmol/Kg body weight) was 2.36. The “UDP-GT activity” value ([3]; dose 0.04 mmol/Kg body weight) was 9.56 ± 4.23 ^d nmol/min/mg protein.

With `N#C[Se]Cc1ccc(C[Se]C#N)[se]1` [(4) SDMSC, selenophenyl-2,5-di-methylene selenocyanate] the “Ratio Test/con (GSH)” value [1, 4] was 0.93, the GSH conc. [1, 4] was 3.58 ± 1.86 μmol/gm tissue weight and the “Ratio Test/con (GSH)” value [1, 5] was 1.39. For the same compound, the GSH conc. [1, 5] was 5.34 ± 1.36 μmol/gm tissue weight, the “Ratio Test/con (GST)” value [2, 8] was 1.13 and the GST act. [2, 8] was 0.45 ± 0.02 ^g μmol/min mg protein. The “Ratio Test/con (GST)” value [2, 9] was 1.10, the GST act. [2, 9] was 0.44 ± 0.04 μmol/min mg protein and the “Ratio Test/con (GST)” value [2, 10] was 1.35. The GST act. [2, 10] was 1.05 ± 0.28 μmol/min mg protein, the “Ratio Test/con (GST)” value [2, 11] was 1.21 and the GST act. [2, 11] was 0.94 ± 0.18 μmol/min mg protein. The “Ratio Test/con (GST)” value [2, 4] was 1.06, the GST act. [2, 4] was 1.20 ± 0.11 ^g μmol/min mg protein and the “Ratio Test/con (GST)” value [2, 5] was 1.50. The GST act. [2, 5] was 1.69 ± 0.18 ^e μmol/min mg protein, the “Ratio Test/con (GST)” value [2, 12] was 1.23 and the GST act. [2, 12] was 0.58 ± 0.08 μmol/min mg protein. The “Ratio Test/con (GST)” value [2, 13] was 1.17, the GST act. [2, 13] was 0.55 ± 0.07 μmol/min mg protein and the “Ratio Test/con (GST)” value [2, 6] was 1.00. The GST act. [2, 6] was 0.34 ± 0.01 μmol/min mg protein, the “Ratio Test/con (GST)” value [2, 7] was 1.06 and the GST act. [2, 7] was 0.36 ± 0.02 μmol/min mg protein. For the same compound, the “Ratio Test/con (UDP-GT)” value ([3]; dose 0.02 mmol/Kg body weight) was 2.30, the “UDP-GT activity” value ([3]; dose 0.02 mmol/Kg body weight) was 10.17 ± 2.37 ^c nmol/min/mg protein and the “Ratio Test/con (UDP-GT)” value ([3]; dose 0.02 mmol/Kg body weight, listed as SDMSC 4) was 2.67. For the same compound, the “Ratio Test/con (UDP-GT)” value ([3]; dose 0.04 mmol/Kg body weight) was 2.43 and the “UDP-GT activity” value ([3]; dose 0.04 mmol/Kg body weight) was 10.75 ± 2.04 ^d nmol/min/mg protein.

`[Se]=C=NCc1ccc(CN=C=[Se])[se]1` [(7) SDMISC, selenophenyl-2,5-di-methylene isoselenocyanate] was tested, and the “Ratio Test/con (GSH)” value [1, 4] was 1.30, the GSH conc. [1, 4] was 4.63 ± 1.30 μmol/gm tissue weight and the “Ratio Test/con (GSH)” value [1, 5] was 1.20. For the same compound, the GSH conc. [1, 5] was 4.25 ± 1.02 μmol/gm tissue weight, the “Ratio Test/con (GSH)” value [1, 6] was 1.36 and the GSH conc. [1, 6] was 2.86 ± 0.14^c μmol/gm tissue weight. For the same compound, the “Ratio Test/con (GSH)” value [1, 7] was 1.90, the GSH conc. [1, 7] was 4.00 ± 0.35^d μmol/gm tissue weight and the “dose response of GST induction (in words)” value ([2]; colon) was “dose response induction”. The “Ratio Test/con (GST)” value [2, 8] was 1.23, the GST act. [2, 8] was 0.80 ± 0.03 ^c μmol/min mg protein and the “Ratio Test/con (GST)” value [2, 9] was 1.34. For the same compound, the GST act. [2, 9] was 0.87 ± 0.03 ^e μmol/min mg protein, the “Ratio Test/con (GST)” value [2, 10] was 1.10 and the GST act. [2, 10] was 1.22 ± 0.21 μmol/min mg protein. The “Ratio Test/con (GST)” value [2, 11] was 1.14, the GST act. [2, 11] was 1.27 ± 0.28 μmol/min mg protein and the “Ratio Test/con (GST)” value [2, 4] was 2.39. For the same compound, the GST act. [2, 4] was 3.06 ± 0.41 ^e μmol/min mg protein, the “Ratio Test/con (GST)” value [2, 5] was 2.34 and the GST act. [2, 5] was 3.00 ± 0.13 ^c μmol/min mg protein. For the same compound, the “Ratio Test/con (GST)” value [2, 12] was 1.31, the GST act. [2, 12] was 0.45 ± 0.04 ^f μmol/min mg protein and the “Ratio Test/con (GST)” value [2, 13] was 1.16. The GST act. [2, 13] was 0.40 ± 0.04 μmol/min mg protein, the “Ratio Test/con (GST)” value [2, 6] was 2.26 and the GST act. [2, 6] was 0.50 ± 0.14 ^e μmol/min mg protein. For the same compound, the “Ratio Test/con (GST)” value [2, 7] was 2.82, the GST act. [2, 7] was 0.62 ± 0.04 ^c μmol/min mg protein and the “Ratio Test/con (GST)” value ([2]; small intestinal mucosa, dose 0.04 mmol/Kg body weight, listed as SDMISC 7) was 2.83. For the same compound, the “Ratio Test/con (UDP-GT)” value ([3]; dose 0.02 mmol/Kg body weight) was 2.56, the “UDP-GT activity” value ([3]; dose 0.02 mmol/Kg body weight) was 10.37 ± 1.99 ^d nmol/min/mg protein and the “Ratio Test/con (UDP-GT)” value ([3]; dose 0.04 mmol/Kg body weight) was 1.60. The “UDP-GT activity” value ([3]; dose 0.04 mmol/Kg body weight) was 6.46 ± 1.95 nmol/min/mg protein.

For `N#C[Se]Cc1ccc(C[Se]C#N)cc1` [p-XSC, 1,4-phenylenebis(methylene)selenocyanate, reference compound], the “Ratio Test/con (GSH)” value [1, 5] was 0.99, the GSH conc. [1, 5] was 3.50 ± 0.75 μmol/gm tissue weight and the “Ratio Test/con (GSH)” value [1, 7] was 0.91. For the same compound, the GSH conc. [1, 7] was 1.93 ± 0.54 μmol/gm tissue weight, the “increase of GSH concentration (in words)” value ([1]; tissues of A/J mice) was “failed to induce a significant increase” and the “Ratio Test/con (GST)” value [2, 8] was 1.10. For the same compound, the GST act. [2, 8] was 0.72 ± 0.07 μmol/min mg protein, the “Ratio Test/con (GST)” value [2, 10] was 0.88 and the GST act. [2, 10] was 0.98 ± 0.27 μmol/min mg protein. The “Ratio Test/con (GST)” value [2, 4] was 1.28, the GST act. [2, 4] was 1.64 ± 0.45 μmol/min mg protein and the “Ratio Test/con (GST)” value [2, 12] was 1.41. For the same compound, the GST act. [2, 12] was 0.48 ± 0.13 μmol/min mg protein, the “Ratio Test/con (GST)” value [2, 6] was 0.95 and the GST act. [2, 6] was 0.21 ± 0.06 μmol/min mg protein. For the same compound, the “induction of GST activity (in words)” value ([2]; tissues of A/J mice) was “failed to induce a significant increase”, the “Ratio Test/con (UDP-GT)” value ([3]; dose 0.04 mmol/Kg body weight) was 1.88 and the “UDP-GT activity” value ([3]; dose 0.04 mmol/Kg body weight) was 7.60 ± 2.47 ^d nmol/min/mg protein.
